Test results: PMC11284896 (Journal of Translational Internal Medicine, 2024)

Biological target: T1, ABCG2 (Homo sapiens, UniProt Q9UNQ0)
T1 sequence (Q9UNQ0 1-655): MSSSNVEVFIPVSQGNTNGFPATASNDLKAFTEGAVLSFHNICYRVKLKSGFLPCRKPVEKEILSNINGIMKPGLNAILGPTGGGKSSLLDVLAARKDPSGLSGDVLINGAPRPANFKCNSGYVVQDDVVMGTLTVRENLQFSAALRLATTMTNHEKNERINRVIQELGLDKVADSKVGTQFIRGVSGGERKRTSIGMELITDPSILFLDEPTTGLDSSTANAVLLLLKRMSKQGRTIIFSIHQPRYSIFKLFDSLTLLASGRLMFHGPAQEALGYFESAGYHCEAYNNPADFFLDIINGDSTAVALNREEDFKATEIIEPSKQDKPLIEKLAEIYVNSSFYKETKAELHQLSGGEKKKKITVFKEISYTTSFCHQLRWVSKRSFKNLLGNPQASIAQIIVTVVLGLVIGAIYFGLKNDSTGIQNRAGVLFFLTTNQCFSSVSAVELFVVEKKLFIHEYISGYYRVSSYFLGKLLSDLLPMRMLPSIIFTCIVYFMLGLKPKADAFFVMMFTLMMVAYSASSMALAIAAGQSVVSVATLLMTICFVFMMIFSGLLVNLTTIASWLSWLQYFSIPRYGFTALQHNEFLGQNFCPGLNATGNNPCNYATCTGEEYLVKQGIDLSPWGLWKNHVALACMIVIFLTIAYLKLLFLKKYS

With `O=C1c2c(O)ccc(O)c2C(=O)c2c(NCCNCCO)ccc(NCCNCCO)c21` [mitoxantrone] the “radiolabelled substrate efflux and accumulation in ABCG2-overexpressing NCI-H460” value was “the efflux of [^3H]-mitoxantrone from cells overexpressed ABCG2 transporter was considerably diminished in the presence of RN486”.
